Consider five molecules from patent publication US10933049B2, “Mobilizing agents and uses therefor” (The University of Queensland, priority 2015, dated 2021).

Entries after “also recorded” stand apart in the source; their conditions may differ.

In assay [1] the test system is ERK and AKT signaling pathways. In words: Western analysis of ERK and AKT phosphorylation in B16 cells. The following applies: cultured B16 cells, 0-60 min. It counts as cell-based, murine. How it is done: B16 cells were treated with recombinant human C3a (10 nM) or the selective mouse C3aR agonist WWGKKYRASKLGLAR [SEQ ID NO: 5] (Proctor et al., 2009; Wu et al., 2013) for the times indicated in the experiment. After treatment, crude protein extracts were obtained by disrupting the cells in RIPA lysis buffer. Samples were subjected to SDS-PAGE (Laemmli, 1970), then separated proteins electrotransferred (Towbin et al., 1979) to a PVDF membrane. Membranes were incubated with antibodies to anti-phospho-AKT, anti-total AKT (Cell Signaling, Danvers, Mass.), mouse anti-diphosphorylated ERK1/2 and rabbit anti-total ERK1/2 (Sigma-Aldrich) followed by fluorescently-labelled secondary antibodies (IR Dye 800CW-goat anti-mouse Ig and IR Dye 680LT anti-rabbit Ig; Li-Cor Biosciences). Immunoreactive bands were visualized by scanning on an Odyssey Imaging System (Li-Cor Biosciences) and the percentage phosphorylated protein relative to total protein determined using Odyssey V3.0 image analysis software.

The target in assay [2] is T1, C3aR (Mus musculus, UniProt O09047).
T1 construct: endogenous in cells; host or cells: B16-F0 murine melanoma cells (ATCC CRL6322)
T1 sequence (O09047 1-477): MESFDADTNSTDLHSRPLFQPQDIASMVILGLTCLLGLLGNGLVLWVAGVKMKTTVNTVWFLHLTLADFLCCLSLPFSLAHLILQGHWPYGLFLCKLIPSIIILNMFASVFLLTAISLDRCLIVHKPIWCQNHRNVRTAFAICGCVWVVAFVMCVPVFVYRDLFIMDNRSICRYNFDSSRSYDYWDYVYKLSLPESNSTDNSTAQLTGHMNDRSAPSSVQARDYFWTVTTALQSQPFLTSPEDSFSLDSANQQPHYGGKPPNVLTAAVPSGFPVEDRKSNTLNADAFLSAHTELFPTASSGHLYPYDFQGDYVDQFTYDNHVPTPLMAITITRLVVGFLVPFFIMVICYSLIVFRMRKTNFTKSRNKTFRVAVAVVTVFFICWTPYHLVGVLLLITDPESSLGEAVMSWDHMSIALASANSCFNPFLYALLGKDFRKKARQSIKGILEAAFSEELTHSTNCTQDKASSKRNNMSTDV
The experiment in a line: Calcium mobilization in B16 cells. It counts as cell-based, murine. The following applies: cultured B16 cells. (A change in cytosolic calcium serves as a functional read-out for many receptors and channels.)

Assay [3] deals with B16 melanoma. The experiment in a line: B16 melanoma growth and survival in mice. The class given is in vivo. The following applies: for survival (time until tumors reach maximal size): C3aRA vs vehicle. How it is done: (§1) WT or C3aR^−/− mice were injected subcutaneously (s.c.) with B16-F0 melanoma (2.5×10^5 cells/mouse) or MC38 colon carcinoma (1×10^6 cells/mouse); female BALB/c mice were injected into the mammary fat pad with 4T1 mammary carcinoma (5×10^5 cells/mouse). Tumor growth was monitored daily from day 5 after tumor cell injection. For some experiments, C57BL/63 mice received daily injections of either C3aR antagonist (SB290157; VDM Biochemicals, Bedford Heights, Ohio; diluted in saline, 1 mg/kg/day i.p.,), C5aR antagonist (PMX53; produced in-house; 1 mg/kg/day) or vehicle only (0.9% saline or 5% glucose solution) control, commencing once tumors became palpable (approx. day 7 after tumor cell injection). For most experiments, mice were euthanized at day 14 (or once the largest tumor reached an area of approx. 200 mm^2), blood was collected by cardiac puncture, tumors, spleen, draining lymph nodes (inguinal, axillary and brachial) and femurs excised for FACS or immunostaining; tumors were weighed. For ‘survival’ studies, the time taken for each tumor to reach a pre-determined size (150 mm^2) was recorded, then mice euthanized.

Assay [4] has as its system leukocyte populations. In words: Flow cytometric analysis of leukocyte populations in B16 tumor-bearing mice. The class given is in vivo. The note with it: vs vehicle. How it is done:
as §1
Single cell suspensions of blood, tumor, spleen and lymph node and bone marrow cell were prepared for surface staining with antibodies to mouse CD45, F4/80, CD11b, Ly6G, Gr-1, CD3, CD4, CD8a (all from Biolegend, San Diego, Calif.). Staining for Tregs was carried out using a FoxP3 Fix/Perm kit (BioLegend), according to manufacturer's instructions. For Th1, Th2, Th17 staining, cells were stimulated with phorbol 12-myristate 13-acetate (PMA; 50 ng/ml; Sigma) and ionomycin (1 μM; Sigma) in the presence of Brefeldin A (5 μg/ml; BioLegend) for 4 h at 37° C. After surface staining, cells were fixed and permeabilized for staining of intracellular cytokines; IL-4, IL-17A or IFN-γ (all from BioLegend). Flow cytometry was performed using an Accuri C6 flow cytometer (BD Biosciences) and data analysis with FlowJo software (Tree Star, Inc., Ashland, Oreg.). Details are provided in Supplemental Experimental Procedures.

Assay [5] relates to 4T1 mammary carcinoma. In words: 4T1 mammary carcinoma growth in BALB/c mice. The following applies: female BALB/c mice, 1 mg/kg/day i.p. from day 0, vs saline. The class given is in vivo. How it is done:
as §1, with “For some experiments, C57BL/63 mice received daily injections of either C3aR antagonist (SB290157; VDM Biochemicals, Bedford Heights, Ohio; diluted in saline, 1 mg/kg/day i.p.,), C5aR antagonist (PMX53; produced in-house; 1 mg/kg/day) or vehicle only (0.9% saline or 5% glucose solution) control, commencing once tumors became palpable (approx. day 7 after tumor cell injection).” left out

The test system of assay [6] is B16 melanoma cells. In words: Cell migration assay (scratch) of B16 cells. It counts as cell-based, murine. The note with it: 10^-6 mol/L, 24 hours. How it is done: Cells were seeded at confluence (2×10^5 cells/cm^2) into a 24 well plate, adhered overnight and then confluent monolayers scratched with a pipette tip before being treated for 24 hours with C3aR agonist (10^−6 mol/L); control wells were incubated with medium alone or containing 5% FCS. Migration was quantified by measuring cell-free areas at day 0 and 24 hours using Image-J software (NIH, Bethesda, Md., USA).

For assay [7], the system named is B16 melanoma cells. The experiment in a line: B16 tumor cell proliferation. It counts as cell-based, murine.
Assay [8] has as its system CD11b+Ly6G+ neutrophils. The experiment in a line: Neutrophil mobilization by G-CSF in wild-type and C3aR-/- mice. It counts as in vivo. The following applies: 120 μg/kg i.v., 2 hours. The procedure:
Wild-type, or C3aR^−/− mice were injected i.v. with G-CSF (Lenograstim; 120 μg/kg), or vehicle (saline). Blood was collected after 2 hours, and CD11b+Ly6G+ neutrophils analyzed using flow cytometry for CD11b+ and Ly6G+.

The mark [9] stands for this setting: established B16 melanoma, C57BL/6J mice, 1 mg/kg/day i.p. from day 7, vs vehicle.

On to “recombinant human C3a: recombinant human C3a used to stimulate B16 cells”, for which, in assay [1], the “ERK and AKT signaling pathways” value is given as “activated”. The calcium mobilization response entry in assay [2] is recorded as “failed to initiate a calcium mobilization response”.
Turning to PMX53, the “reduction in tumor growth observed in C3aR-/- mice” value in assay [3] (C3aR-/- mice, B16 melanoma, 1 mg/kg/day s.c. once tumors palpable) was “not enhanced”. Besides, the melanoma growth entry in assay [3] (WT mice, B16 melanoma, 1 mg/kg/day s.c. once tumors palpable, vs vehicle) was “inhibited melanoma growth”.
As to `N=C(N)NCCC[C@H](NC(=O)COCC(c1ccccc1)c1ccccc1)C(=O)O` [SB290157, N^2-[(2,2-diphenylethoxy)acetyl]-1-arginine], the “survival (time until tumors reach maximal size)” value in assay [3] (B16 melanoma) is on record as “significantly improved”. Moreover, in assay [3] (B16 melanoma, listed as C3aRA), the “survival (time until tumors reach maximal size)” value is “increased survival”. Moreover, in assay [3] (B16 melanoma, day 14, 1 mg/kg/day i.p. from day 7, vs vehicle), the excised tumor weights entry was “significantly smaller”. Further, in assay [3] (setting [9]), the tumor area entry was “significantly smaller than in the vehicle-treated control group” and the tumor progression entry is “dramatically retarded”. Also, in assay [4] (blood), the Tregs result is “reduction” and the neutrophils result is listed as “significant increase”. For the same molecule, in assay [4] (bone marrow), the MDSC entry is “significantly lower”, the monocytes entry is reported as “significantly lower” and the neutrophils entry is on record as “significantly lower”. For the same molecule, in assay [4] (draining lymph nodes), the Th2 cells entry is “significantly increased”, the macrophages entry is “not significantly different”, the monocytes result is listed as “not significantly different” and the neutrophils entry is on record as “not significantly different”. In assay [4] (draining lymph nodes), the “percentage of CD4+ T lymphocytes” value was “significantly increased” and the “percentage of CD8+ T lymphocytes” value is “significantly increased”. In addition, in assay [4] (spleen), the “CD4+ lymphocytes” value is on record as “significantly higher”, the MDSC entry was “significantly lower”, the Th2 cells entry was “significant increases” and the Treg cells entry was “significant increases”. In assay [4] (spleen), the proportion of macrophages result is recorded as “not significantly altered”, the proportion of monocytes entry is “not significantly altered”, the proportion of neutrophils result is “not significantly altered” and the total lymphocytes result is “significantly higher”. Moreover, in assay [4] (tumor tissue, 1 mg/kg/day), the “percentage of CD4+ T lymphocytes” value is “higher”, the “percentage of Th1 subset” value is “significantly increased”, the “percentage of Th2 subset” value is on record as “significantly increased” and the “percentage of Th17 subset” value is given as “significantly increased”. Moreover, in assay [4] (tumor tissue, 1 mg/kg/day), the “percentage of total T lymphocytes” value is “higher”, the “percentage of tumor-infiltrating neutrophils” value was “increased”, the “proportion of MDSC” value is recorded as “not significantly altered” and the tumor-associated macrophages entry is recorded as “reduced”. The tumor growth entry in assay [5] is recorded as “significant inhibition of tumor growth”.
Regarding “WWGKKYRASKLGLAR (listed as Homo sapiens) [selective C3aR agonist]”, in assay [6], the cell migration result is given as “significantly increased”. Further, the “ERK and AKT signaling pathways” value in assay [1] is “activated”. Besides, the calcium mobilization response entry in assay [2] is “failed to initiate a calcium mobilization response”. For the same molecule, the tumor cell proliferation result in assay [7] is listed as “no significant effect”.

B1: G-CSF: granulocyte-colony stimulating factor (Lenograstim), stem cell-mobilizing agent (protein, UniProt P09919 31-207, looked up)
Granulocyte …: TPLGPASSLPQSFLLKCLEQVRKIQGDGAALQEKLVSECATYKLCHPEELVLLGHSLGIPWAPLSSCPSQALQLAGCLSQLHSGLFLYQGLLQALEGISPELGPTLDTLQLDVADFATTIWQQMEELGMAPALQPTQGAMPAFASAFQRRAGGVLVASHLQSFLEVSYRVLRHLAQP
In the case of B1, in assay [8], the “blood CD11b+Ly6G+ (anti-tumor) neutrophils in C3aR-/- mice compared with saline” value is “significantly enhanced; also recorded: significant (P=0.0079) increase” and the “mobilization of blood neutrophils, C3aR-/- compared with wild-type mice” value is listed as “significantly (P=0.0056) greater mobilization of neutrophils”.
